Results published in article PMC3880646 (Journal of medicinal chemistry, 2013).

What was measured:
SJSA-1 xenograft model = settings: cited from earlier work; for tumor growth in SJSA-1 xenograft model: high oral doses (200–300 mg/kg) ref 8, 21
[1] = test system: p53 activation in SJSA-1 osteosarcoma cell line; assay: Western blot analysis of p53 activation and PARP cleavage in SJSA-1 cells; format: cell-based, human; settings: for full-length PARP (apoptosis induction) / p53 activation (accumulation of p53, MDM2 and p21): 24 h
[2] = test system: p53 activation and apoptosis in SJSA-1 xenograft tumor tissues; assay: Pharmacodynamics study in SJSA-1 xenograft tumor tissues
[3] = single oral dose 100 mg/kg, 24 h

Row | Structure (SMILES) | complete tumor regression (SJSA-1 xenograft model) | tumor growth in SJSA-1 xenograft model (SJSA-1 xenograft model) | full-length PARP (apoptosis induction) ([1]; Western blot) | p53 activation (accumulation of p53, MDM2 and p21) ([1]; Western blot) | times more potent than 2 in p53 activation [1] | times more potent than Nutlin-3a in p53 activation [1] [times] | lowest concentration activating p53 (clear accumulation of p21 and p53) ([1]; Western blot) [nM] | cleavage of PARP and caspase-3 in tumor tissue ([2]; single oral dose 100 mg/kg, 1, 3 and 6 h) | p53, p21 and MDM2 protein levels in tumor tissue ([2]; single oral dose 100 mg/kg, 3 h and 6 h) | cleavage of PARP and caspase-3 in tumor tissue [2, 3] | p53, p21 and MDM2 protein levels in tumor tissue [2, 3]
1 | CC(C)(C)C[C@H]1N[C@@H](C(=O)NCC[C@H](O)CO)[C@H](c2cccc(Cl)c2)[C@@]12C(=O)Nc1cc(Cl)c(F)cc12 [Compound 1] | failed to achieve complete tumor regression | inhibited tumor growth | – | – | – | – | – | – | – | – | –
2 | CC(C)(C)C[C@@H]1N[C@@H](C(=O)NCC[C@H](O)CO)[C@H](c2cccc(Cl)c2F)[C@]12C(=O)Nc1cc(Cl)ccc12 [Compound 2] | failed to achieve complete tumor regression | inhibited tumor growth | dose-dependently diminished | effectively and dose-dependently activate p53 | – | – | – | – | – | – | –
3 | CC(C)(C)C[C@@H]1N[C@@H](C(=O)N[C@H]2C[C@@](C)(O)C2)[C@H](c2cccc(Cl)c2F)[C@]12C(=O)Nc1cc(Cl)ccc12 [Compound 9] | – | – | dose-dependently diminished | effectively and dose-dependently activate p53 | at least 3 times | 10 | 30 | minimal | robust upregulation | very clear | significantly diminished
4 | COc1ccc(C2=N[C@@H](c3ccc(Cl)cc3)[C@@H](c3ccc(Cl)cc3)N2C(=O)N2CCNC(=O)C2)c(OC(C)C)c1 [Nutlin-3a, reference compound] | – | – | dose-dependently diminished | effectively and dose-dependently activate p53 | – | – | – | – | – | – | –
